System: animal fouling
Experiment: Exposure in the Oosterschelde of painted PVC boards
Conditions: for Coverage CO (percentage coverage) / Dry weight Dw (dry weight of fouling organisms) / Fresh weight Fw (fresh weight of fouling organisms): 18 weeks exposure, each active 2.78% in dry paint film; for Coverage CO (percentage coverage): mean of front and backsides of panels; for Dry weight Dw (dry weight of fouling organisms) / Fresh weight Fw (fresh weight of fouling organisms): total of front and backsides; for Coverage % Eo (observed efficacy) / Dry weight % Eo (observed efficacy) / Fresh weight % Eo (observed efficacy): fouling inhibition vs control, 18 weeks, each active 2.78% in dry paint; for Coverage % Eo (observed efficacy): by coverage; for Dry weight % Eo (observed efficacy): by dry weight; for Fresh weight % Eo (observed efficacy): by fresh weight
Source text: • Test model: exposure in the Oosterschelde of painted PVC boards • Name of the primary compound: 4-bromo-2-(4-chloro-phenyl)-5-(trifluoromethyl)-1H-pyrrole-3-carbonitrile as component (I) • Name of the combination partners: capsaicine as component (II-d); • clonidine as component (II-e); • zosteric acid as component (II-r). • Test formulations: Paint formulation comprising xylene (47.7%), light aromatic solvent naphtha (CAS 64742-95-6) (16.2%), propylene oxide (0.06%), and zinc oxid (2.24%). Paint was diluted with 10% xylene to obtain the wet paint which was applied to the panels. • Dosage: Individual test compounds were added at a concentration of 1.8% by weight in the wet paint, resulting in 2.78% by weight in the dry paint film. • Test specimens: PVC boards with dimensions of 10×2×0.5 cm. […] Percentage coverage of the panels by fouling organisms as estimated visually. • 2. Fresh weight of fouling organisms on panels in gram. • 3. Dry weight of fouling organisms on panels in gram. Synergy evaluation: Synergy was tested according to the method of Limpel (Limpel, L. E., Schuldt, P. H., and Lamont, D. Weed Control Conf. 16: 48-53, 1962) as described in Colby (Colby, S. R., Weeds 15: 20-22, 1967) and Richer (Richer, D. L., Pesticide Science 19: 309-315, 1987). The single active ingredients were applied at a concentration of 2.78% in the dried coating. In the combinations, both actives were applied at 2.78%, resulting in […] of total active ingredient.

Structure (SMILES)	Coverage CO (percentage coverage) [%]	Dry weight Dw (dry weight of fouling organisms) [gram]	Fresh weight Fw (fresh weight of fouling organisms) [gram]	Coverage % Eo (observed efficacy) [%]	Dry weight % Eo (observed efficacy) [%]	Fresh weight % Eo (observed efficacy) [%]
N#Cc1c(-c2ccc(Cl)cc2)[nH]c(C(F)(F)F)c1Br [(I), 4-bromo-2-(4-chlorophenyl)-5-(trifluoromethyl)-1H-pyrrole-3-carbonitrile]	42.5	1.94	2.90	19.8	37.9	36.0
COc1cc(CNC(=O)CCCC/C=C/C(C)C)ccc1O [(II-d), capsaicine]	65.0	3.58	5.50	−22.6	−14.6	−21.3
Clc1cccc(Cl)c1N=C1NCCN1 [(II-e), clonidine]	72.5	3.92	6.10	−36.8	−25.6	−33.8
O=C(O)/C=C/c1ccc(OS(=O)(=O)O)cc1 [(II-r), zosteric acid]	57.5	2.05	5.40	−8.5	34.5	−18.4

Source: patent publication US20090093443A1, “COMBINATIONS OF 4- BROMO-2-(4-CHLOROPHENYL)-5-(TRIFLUOROMETHYL)-1H-PYRROLE-3-CARBONITRILE AND BIOCIDAL COMPOUNDS” (JASSEN PHARMACEUTICA N.V., priority 2006, published 2009)
